Results from patent publication US10227347B2, “Purinyl-N-hydroxyl pyrimidine formamide derivative, preparation methods and uses thereof” (Guizhou Bailing Group Pharmaceutical CO., LTD., priority 2015, dated 2019).
Read-outs that look alike come from different tables or passages of the source.

Tests used:
HDAC8 = molecular target: T1, HDAC8 (Homo sapiens, UniProt Q9BY41); assay: HDAC8 enzyme inhibition (Lys-Ac-AMC); assay type: biochemical; conditions: Table 4, graded
T1 construct: purchased BPS Bioscience 50008
T1 sequence (Q9BY41 1-377): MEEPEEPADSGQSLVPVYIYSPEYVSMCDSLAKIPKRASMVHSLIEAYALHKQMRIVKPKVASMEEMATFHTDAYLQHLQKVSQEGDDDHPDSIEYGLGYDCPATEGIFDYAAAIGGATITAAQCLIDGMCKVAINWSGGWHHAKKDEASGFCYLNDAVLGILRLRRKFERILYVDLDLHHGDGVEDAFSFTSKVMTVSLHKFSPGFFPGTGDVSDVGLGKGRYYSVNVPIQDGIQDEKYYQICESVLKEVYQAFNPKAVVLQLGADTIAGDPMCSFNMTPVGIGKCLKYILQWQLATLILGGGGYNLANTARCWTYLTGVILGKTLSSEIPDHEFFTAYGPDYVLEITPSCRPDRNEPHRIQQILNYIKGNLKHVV
Description: (§1) Determining the inhibition capability of HDAC through the substrate method of fluorophore coupled acetylized peptide fragment (Lys-Ac-AMC). HDAC2-11 proteins of subtypes are purchased from BPS Bioscience Company with the Art. […] The reaction buffer system is a modified Tris buffer (pH7.0). The small molecule compounds are prepared and dissolved with 100% DMSO. […] Adding the compound into the reaction wells of the 384 well plate at the designed concentration, then adding 15 μL HDAC enzyme solution into the reaction wells (adding 15 μL blank buffer into the control well 0) for incubation under ambient temperature for 15 min; then adding 10 μL substrate solution to start reaction.
(§2) Analyzing the result data with the software GraphPad Prism and calculating the value of IC50 as per the formula: Y=background data+(top data−background data)/(1+10^((Log IC50−X)*rate of curve)). Where, Y refers to the inhibition ratio (%) and X refers to the compound concentration.

[1] = tested on: U266 cells (multiple myeloma); assay: Proliferation inhibition, U266 (cck-8); assay type: cell-based; conditions: Homo sapiens, U-266; 96 h incubation
From the text: (§3) Calculating the value of IC50 as per the formula: Y=background data+(top data−background data)/(1+10^((Log IC50−X)*rate of curve)). Where, Y refers to the inhibition ratio (%) and X refers to the compound concentration.

[2] = tested on: acetylated histone H3 (Ac-H3) in A2780s cells; assay: Induction of histone H3 acetylation in A2780s cells (cytoblot); assay type: cell-based; conditions: Homo sapiens, 6 h treatment
Description: Specific operation: After the treatment, washing each well once with 50-100 μl of cold TBS buffer [with the composition as 20 mM Tris (trismetyl aminomethane), pH7.5] and fixing it with 100 μL of 4% pre-cooled paraformaldehyde at 4° C. for 1 h; after paraformaldehyde is washed off, adding 50 μL of pre-cooled methyl alcohol in each well and evenly spreading at 4° C. for 5 min; after methyl alcohol is washed off, washing it once with the TBS buffer containing 3% skim milk powder and adding 50 μL of antibody fluid, oscillating it slightly at 4° C. and incubating overnight. For determination of Ac—H3, the antibody fluid is prepared by diluting Ac—H3 antibody and horseradish peroxide coupled secondary antibody to a same system with the TBS buffer containing 3% skim milk powder (Ac—H3 antibody is purchased from Santa Cruz Company and diluted at a ratio of 1:100; horseradish peroxide coupled secondary antibody is purchased from Jackson Company and diluted at a ratio of 1:2000); for determination of acetylated Ac-α-tubulin, the antibody fluid is prepared by diluting Ac-α-tubulin antibody and horseradish peroxide coupled secondary antibody to a same system with the TBS buffer containing 3% skim milk powder (Ac-α-tubulin antibody is purchased from Santa Cruz Company and diluted at a ratio of 1:100; horseradish peroxide coupled secondary antibody is purchased from Jackson Company and diluted at a ratio of 1:2000).
Calculating the value of IC50 as per the formula: Y=background data+(top data−background data)/(1+10^((Log EC50−X)*rate of curve)) Where, Y refers to the activating rate (%) and X refers to the compound concentration.

[3] = tested on: A2780s cells (ovarian cancer); assay: Cell proliferation inhibition, A2780s (MTT); assay type: cell-based; conditions: Homo sapiens
Method in brief: (§4)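 Cells seeded at 2000-3000/well; adherent lines dosed after attachment, then 96 h incubation with compound. Viability read by MTT for solid-tumour lines (HCT116, A2780s) and CCK-8 for MV4-11; IC50 from four-parameter logistic fit of inhibition ratio versus concentration.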

[4] = tested on: HBL-1 cells (B-cell lymphoma); assay: Proliferation inhibition, HBL-1 (cck-8); assay type: cell-based; conditions: Homo sapiens, HBL1; 96 h incubation
From the text: as §3

[5] = tested on: MV4-11 cells (acute myeloid leukemia); assay: Cell proliferation inhibition, MV4-11 (cck-8); assay type: cell-based; conditions: Homo sapiens
Method in brief: as §4

[6] = tested on: SUDHL-4 cells (B-cell lymphoma); assay: Proliferation inhibition, SUDHL-4 (cck-8); assay type: cell-based; conditions: Homo sapiens, SU-DHL-4; 96 h incubation
From the text: as §3

HDAC10 = molecular target: T2, HDAC10 (Homo sapiens, UniProt Q969S8); assay: HDAC10 enzyme inhibition (Lys-Ac-AMC); assay type: biochemical; conditions: Table 4, graded
T2 construct: purchased BPS Bioscience 50060
T2 sequence (Q969S8 1-669): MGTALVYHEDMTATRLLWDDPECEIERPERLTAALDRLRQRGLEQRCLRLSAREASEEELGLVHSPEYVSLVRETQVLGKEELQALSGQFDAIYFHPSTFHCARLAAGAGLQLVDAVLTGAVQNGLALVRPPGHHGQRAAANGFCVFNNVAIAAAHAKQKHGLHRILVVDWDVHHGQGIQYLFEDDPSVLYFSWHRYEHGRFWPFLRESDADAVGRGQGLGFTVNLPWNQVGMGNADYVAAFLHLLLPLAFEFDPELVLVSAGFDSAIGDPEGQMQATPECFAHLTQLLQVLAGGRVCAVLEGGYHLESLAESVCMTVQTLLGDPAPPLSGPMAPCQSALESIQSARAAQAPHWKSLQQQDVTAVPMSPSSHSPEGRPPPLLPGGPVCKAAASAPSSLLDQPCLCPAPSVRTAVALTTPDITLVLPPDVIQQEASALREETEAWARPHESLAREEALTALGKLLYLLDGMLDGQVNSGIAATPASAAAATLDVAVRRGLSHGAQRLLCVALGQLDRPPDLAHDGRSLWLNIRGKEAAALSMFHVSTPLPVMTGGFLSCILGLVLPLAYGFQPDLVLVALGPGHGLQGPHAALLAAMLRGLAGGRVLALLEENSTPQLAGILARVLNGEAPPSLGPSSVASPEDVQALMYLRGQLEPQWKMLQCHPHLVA
Description: as §1, §2

[7] = tested on: hct116 cells (colon cancer); assay: Cell proliferation inhibition, hct116 (MTT); assay type: cell-based; conditions: Homo sapiens, HCT-116
Method in brief: as §4

[8] = 96 h incubation, read-out: Proliferation IC50, Ovarian cancer A2780s
[9] = 96 h incubation, read-out: Proliferation IC50, Acute myeloid leukemia MV4-11
[10] = 96 h incubation, read-out: Proliferation IC50, Colon cancer hct116

Structure (SMILES)	IC50 (HDAC8) [nM]	IC50 [1] [nM]	EC50 [2] [nM]	IC50 [3, 8] [nM]	IC50 [4] [nM]	IC50 [5, 9] [nM]	IC50 [6] [nM]	IC50 (HDAC10) [nM]	IC50 [7, 10] [nM]	IC50 ([3]; read-out: IC50 to proliferation of A2780s cells) [nM]	IC50 ([5]; read-out: IC50 to proliferation of MV4-11 cells) [nM]	IC50 ([7]; read-out: IC50 to proliferation of hct116 cells) [nM]
COc1ccc(-c2nc(N3CCOCC3)c3nc(CN(C)c4ncc(C(=O)NO)cn4)n(C)c3n2)cn1 [CLJ-1, 2-(((2-(6-methoxypyridine-3-yl)-9-methyl-6-morpholine-9H-purine-8-yl))methyl(methyl)amino)-N-hydroxyl pyrimidine-5-formamide]	100 to 1000	0.1 to 1	100 to 200	0.1 to 10	1 to 10	0.1 to 10	1 to 10	1 to 100	10 to 100			
CN(Cc1nc2c(N3CCOCC3)nc(-c3cnc(N)nc3)nc2n1C)c1ncc(C(=O)NO)cn1 [CLJ-11, 2-(((2-(2-aminopyrimidine-5-yl)-9-methyl-6-morpholine-9H-purine-8-yl))methyl(methyl)amino)-N-hydroxyl pyrimidine-5-formamide]	1 to 100	10 to 100	100 to 200	10 to 100	10 to 100	0.1 to 10	10 to 100	1 to 100	10 to 100			
COc1ccc(-c2nc(N3CCOCC3)c3nc(CN(C)c4ncc(C(=O)NO)cn4)n(C)c3n2)cc1 [CLJ-29, 2-(((2-(4-methoxyphenyl)-9-methyl-6-morpholine-9H-purine-8-yl))methyl(methyl)amino)-N-hydroxyl pyrimidine-5-formamide]	1 to 100	0.1 to 1	< 100	0.1 to 10	1 to 10	0.1 to 10	0.1 to 1	1 to 100	0.1 to 10	0.1 to 10	0.1 to 10	0.1 to 10
Cc1[nH]c2ccccc2c1CCNCc1ccc(/C=C/C(=O)NO)cc1 [LBH589, panobinostat, reference compound]		1 to 10	100 to 200	0.1 to 10	1 to 10	0.1 to 10	1 to 10		0.1 to 10			
CN(Cc1nc2c(N3CCOCC3)nc(-c3ccc(N)cc3)nc2n1C)c1ncc(C(=O)NO)cn1 [CLJ-44]	1 to 100	1 to 10	100 to 200	0.1 to 10	1 to 10	0.1 to 10	1 to 10	1 to 100	10 to 100			
